≈ marks a conversion by molar mass, not a printed value. Structures can show the parent of a compound that is named as a salt. Where two headings read alike, the source gives them in different places.
Assays:
[1] = Storage stability in sealed vial at 50° C. for 4 weeks, % residue; assay type: physicochemical; conditions: 40320 min
Experimental: One sample each of the following compounds was stored in a sealed vial at 50° C. for 4 weeks.
The sodium salt, zwitter ion, and monohydrochloride of 7β-[2-(2-imino-4-thiazoline-4-yl)acetamido]-3-[1-[2-(N,N-dimethylamino)ethyl]-1H-tetrazol-5-yl]thiomethyl-3-cephem-4-carboxylic acid, as well as the lyophilized powders of said acid dihydrochloride (amorphous powders, Example 4-(2)), the crystals of said acid dihydrochloride (Example 1-(3)) and the non-crystalline powders obtained by drying said dihydrochloride crystals (Example 1-(4)) as obtained in accordance with this invention.
The percent residue figures are as follows.

[2] = system: Bacillus subtilis ATCC 6633; experiment: Bioassay by the cylinder method; assay type: cell-based
Experimental: The bioassay by the cylinder method was carried out using 7β-[2-(2-imino-4-thiazolin-4-yl)acetamido]-3-[1-[2-(N,N-dimethylamino)ethyl]-1H-tetrazol-5-yl]thiomethyl-3-cephem-4-carboxylic acid .2H Cl salt as the standard product against Bacillus subtilis ATCC 6633 as the assay microorganism.
The potency of the anhydrous zwitter ion compound was 1000 mcg/ml. The calculated potency of a sample containing 2 moles of HCl per mole of the zwitter ion compound and none of non-bonding hydrochloric acid, water, residual solvent or other impurity is 878 mcg/ml.

[3] = system: Escherichia coli NIHJ JC-2; experiment: Antibacterial spectrum (agar dilution), MIC; assay type: cell-based; conditions: NIHJJC2, on anhydrate basis, E. coli NIHJ JC-2
From the text: (§1) The antibacterial potency (in terms of MIC) and toxicity of the contemplated compound (I) on anhydrate basis
(§2) (1) Antibacterial spectrum (agar dilution)

Escherichia coli O-111 = experiment: Antibacterial spectrum (agar dilution), MIC; assay type: cell-based; conditions: O111, on anhydrate basis, E. coli O-111
From the text: as §1, §2

Escherichia coli T-7 = experiment: Antibacterial spectrum (agar dilution), MIC; assay type: cell-based; conditions: T7, on anhydrate basis, E. coli T-7
From the text: as §1, §2

Klebsiella pneumoniae DT = experiment: Antibacterial spectrum (agar dilution), MIC; assay type: cell-based; conditions: on anhydrate basis, K. pneumoniae DT
From the text: as §1, §2

[4] = system: Proteus morganii IFO 3848; experiment: Antibacterial spectrum (agar dilution), MIC; assay type: cell-based; conditions: Morganella morganii, IFO3848, on anhydrate basis, P. morganii IFO 3848
From the text: as §1, §2

[5] = system: Proteus vulgaris IFO 3988; experiment: Antibacterial spectrum (agar dilution), MIC; assay type: cell-based; conditions: IFO3988, on anhydrate basis, P. vulgaris IFO 3988
From the text: as §1, §2

[6] = system: Staphylococcus aureus 1840; experiment: Antibacterial spectrum (agar dilution), MIC; assay type: cell-based; conditions: on anhydrate basis, S. aureus 1840
From the text: as §1, §2

[7] = system: Staphylococcus aureus FDA 209 P; experiment: Antibacterial spectrum (agar dilution), MIC; assay type: cell-based; conditions: FDA209, on anhydrate basis, S. aureus FDA 209 P
From the text: as §1, §2

[8] = Acute toxicity (mouse, intraperitoneal); conditions: in vivo, ip, 1:1 (by mole) mixture of compound (I) and sodium carbonate, anhydrate basis, read-out: CD50 (the source's name)
From the text: as §1
(2) Acute toxicity (mouse, intraperitoneal)
The acute toxicity data relates to a 1:1 (by mole) mixture of contemplated compound (I) and sodium carbonate.

[9] = Stability in storage / shelf-life (statement); assay type: physicochemical
[10] = Water solubility (statement); assay type: physicochemical
[11] = West German Patent Application Laid Open No. 2461478; cited from earlier work

CN(C)CCn1nnnc1SCC1=C(C(=O)O)N2C(=O)[C@@H](NC(=O)Cc3csc(N)n3)[C@H]2SC1 [Example 1-(3), 7β-[2-(2-imino-4-thiazolin-4-yl)acetamido]-3-[1-[2-(N,N-dimethylamino)ethyl]-1H-tetrazol-5-yl]thiomethyl-3-cephem-4-carboxylic acid]
% Residue [1]: 99%

CN(C)CCn1nnnc1SCC1=C(C(=O)O)N2C(=O)[C@@H](NC(=O)Cc3csc(N)n3)[C@H]2SC1 [Example 1-(4), 7β-[2-(2-imino-4-thiazolin-4-yl)acetamido]-3-[1-[2-(N,N-dimethylamino)ethyl]-1H-tetrazol-5-yl]thiomethyl-3-cephem-4-carboxylic acid]
% Residue [1]: 98%

CN(C)CCn1nnnc1SCC1=C(C(=O)O)N2C(=O)[C@@H](NC(=O)Cc3csc(N)n3)[C@H]2SC1 [Example 4-(2), 7β-[2-(2-imino-4-thiazolin-4-yl)acetamido]-3-[1-[2-(N,N-dimethylamino)ethyl]-1H-tetrazol-5-yl]thiomethyl-3-cephem-4-carboxylic acid]
% Residue [1]: 86%

CN(C)CCn1nnnc1SCC1=C(C(=O)O)N2C(=O)[C@@H](NC(=O)Cc3csc(=N)[nH]3)[C@H]2SC1 [Example 7-(3), 5β-[2-(2-imino-4-thiazolin-4-yl)acetamido]-3-[1-[2-(N,N-dimethylamino)ethyl]-1H-tetrazol-5-yl]thiomethyl-3-cephem-4-carboxylic acid]
Bioassay (potency) [2]: 865 µg/mL

CN(C)CCn1nnnc1SCC1=C(C(=O)O)N2C(=O)[C@@H](NC(=O)Cc3csc(N)n3)[C@H]2SC1 [Monohydrochloride (lyophilizate), 7β-[2-(2-imino-4-thiazoline-4-yl)acetamido]-3-[1-[2-(N,N-dimethylamino)ethyl]-1H-tetrazol-5-yl]thiomethyl-3-cephem-4-carboxylic acid, reference compound]
% Residue [1]: 73%

CN(C)CCn1nnnc1SCC1=C(C(=O)O)N2C(=O)[C@@H](NC(=O)Cc3csc(N)n3)[C@H]2SC1 [Sodium salt (lyophilizate), 7β-[2-(2-imino-4-thiazoline-4-yl)acetamido]-3-[1-[2-(N,N-dimethylamino)ethyl]-1H-tetrazol-5-yl]thiomethyl-3-cephem-4-carboxylic acid, reference compound]
% Residue [1]: 76%

CN(C)CCn1nnnc1SCC1=C(C(=O)O)N2C(=O)[C@@H](NC(=O)Cc3csc(N)n3)[C@H]2SC1 [compound (I)]
MIC [3]: 0.2 µg/mL (≈ 0.38 µM) | MIC (Escherichia coli O-111): 0.05 µg/mL (≈ 0.0951 µM) | MIC (Escherichia coli T-7): 1.56 µg/mL (≈ 2.97 µM) | MIC (Klebsiella pneumoniae DT): 0.1 µg/mL (≈ 0.19 µM) | MIC [4]: 0.39 µg/mL (≈ 0.742 µM) | MIC [5]: 1.56 µg/mL (≈ 2.97 µM) | MIC [6]: 0.78 µg/mL (≈ 1.48 µM) | MIC [7]: 0.39 µg/mL (≈ 0.742 µM) | LD50 [8]: ≥ 20000 mg/kg | stability in storage [9]: highly stable in storage

CN(C)CCn1nnnc1SCC1=C(C(=O)O)N2C(=O)[C@@H](NC(=O)Cc3csc(N)n3)[C@H]2SC1 [compound (II), 7β-[2-(2-imino-4-thiazolin-4-yl)acetamido]-3-[1-[2-(N,N-dimethylamino)ethyl]-1H-tetrazol-5-yl]thiomethyl-3-cephem-4-carboxylic acid, reference compound]
% Residue ([1]; listed as Zwitter ion(lyophilizate)): 54% | Bioassay (potency) ([2]; listed as anhydrous zwitter ion compound): 1000 µg/mL | water solubility [10]: high water solubility | stability on long shelf-life ([9]; free acid form (zwitter ion) or salt with a base): unstable in the free acid form (zwitter ion) or its salt with a base | antibiotic activity [11]: excellent antibiotic activity

Source: US4146710A, “Solid cephalosporin salt” (Takeda Chemical Industries, Ltd., priority 1976, dated 1979)
